Assay results reported in US20220349875A1, “METHOD TO INDEPENDENTLY ANALYZE MULTIPLE BIOLOGICAL PROCESSES IN ENCAPSULATED 3D CELL CO-CULTURES” (UNIVERSITÉ DE GENÈVE, priority 2019, published 2022).

How the values were obtained:
[1] = system: BC cells stably expressing the reporter zipGFP-Casp3; test: Apoptosis of encapsulated BC cells (zipGFP-Casp3 reporter), monoculture or multi-culture with LC cells; type: cell-based; settings: micromolar Tamoxifen (1 μM to 10 μM), 96 hours, with vs without LC cells; FIG. 4
Procedure: Image acquisition was performed with an automated confocal microscope. Cell segmentation and quantification of cell fluorescence intensities were performed with the software MetaXpress (Molecular Devices). For the quantification of apoptosis, cell fluorescence intensities from far-red-labelled capsules were measured and the green fluorescence was normalized with the red fluorescence. […] Data is representative of 3 independent replicates.
Dispense capsules in wells of a 96-well imaging quality plate by continuously pipetting up and down to maintain the capsules in suspension before transferring the proper volume into the well.
Half of wells are not filled with LC capsules (conditions with BC cells only)
Incubate the plate at 37° C. for 96 hours.

[2] = system: BC cells stably expressing the dual-reporter FUCCI; test: Proliferation of encapsulated BC cells (FUCCI dual reporter), monoculture or multi-culture with LC cells; type: cell-based; settings: micromolar Tamoxifen (1 μM to 10 μM), 96 hours; FIG. 5
Excerpt: LC cells were encapsulated in green-labelled alginate capsules, BC cells stably expressing the dual reporter gene FUCCI (active proliferating cells are green, not-proliferating cells (latent) are red) were encapsulated in unlabelled alginate capsules, and BC cells stably expressing the reporter gene zipGFP-Casp3 (all cells are red (reporter expression control) and cells become green upon apoptosis induction) were encapsulated in far-red-labelled alginate capsules. […] Image acquisition was performed with an automated confocal microscope. Cell segmentation and quantification of cell fluorescence intensities were performed with the software MetaXpress (Molecular Devices). For the quantification of proliferation, cell fluorescence intensities from unlabelled capsules were measured. […] Data is representative of 3 independent replicates.
Induction of apoptosis is measured by automated confocal microscopy (HCS) in BC cells stably expressing the reporter zipGFP-Casp3 and proliferation is measured at the same time in BC cells stably expressing the dual-reporter FUCCI. […]

CC/C(=C(\c1ccccc1)c1ccc(OCCN(C)C)cc1)c1ccccc1 [Tamoxifen]
induction of apoptosis in BC cells [1]: increased by Tamoxifen in a dose-dependent manner only in co-culture with LC cells | cell proliferation inhibition [2]: already maximal at 1 μM
